Measurements from EP0092121A1, “Methods and compositions for treating gastro-intestinal ulcer diesease” (BOARD OF REGENTS THE UNIVERSITY OF TEXAS SYSTEM, priority 1982, dated 1983).

Test system: acute pylorus-ligated rat preparation
Assay: In vivo protection against acid-induced gastric damage in HCl-challenged rats (gross examination, gastric hemoglobin)
Conditions: individual phospholipid, gastric sample hemoglobin after 0.6 N HCl
Procedure: Applicants directly investigated this question in an acute pylorus-ligated rat preparation, in which test agents could be administered directly into the stomach by way of an esophageal cannula. Rats were fasted overnight and maintained under Nembutal anesthesia throughout the study period. The rats were divided into two groups (3 rats/grp); one group which was designated "surfactant treated" received 0.5 ml of a liposomal suspension in saline of the following phospholipids: […], 15 µg of DPPE, DPPG, DPPI and Sphingomyelin; and the second group (controls) was intragastrically injected with 0.5 ml of saline. Five minutes later both groups received 1 ml of an ulcerogenic dose of 0.6 N HCI. The anesthetized animals were left undisturbed for 45 minutes, after which they were sacrificed, and the stomachs excised, opened along the greater curvature and examined.
In another series of in vivo experiments, the individual phospholipids: dipalmitoyl lecithin, dipalmitoyl phosphatidyl ethanolamine, and phosphatidyl choline were tested for anti-ulcer activity. The experiments were performed as described above. In addition, immediately before the rat was sacrificed, a gastric sample was withdrawn for hemoglobin analysis. […] Sample anti-ulcer activity was measured as a percent of hemoglobin count relative to hemoglobin detected from animals pretreated with the combination of 135 µg DPL, 15 µg of DPPE, DPPG, DPPI and sphingomyelin mixture.
Anti-ulcer activity was inversely proportional,to the amount of hemoglobin detected. Table I tabulates the relative anti-ulcer activity of the individually tested phospholipids.

Compound | ACTIVITY (anti-ulcer activity, hemoglobin count relative to mixture) (15 µg) | ACTIVITY (anti-ulcer activity, hemoglobin count relative to mixture) (135 µg) [%]
CCCCCCCCCCCCCCCC(=O)OCC(COP(=O)([O-])OCC[N+](C)(C)C)OC(=O)CCCCCCCCCCCCCCC (stereo not drawn) [Dipalmitoyl lecithin, dipalmitoyl lecithin] | 95% | 90
CCCCCCCCCCCCCCCC(=O)OCC(COP(=O)(O)OCCN)OC(=O)CCCCCCCCCCCCCCC (stereo not drawn) [Dipalmitoyl phosphatidyl ethanolamine, dipalmitoyl phosphatidyl ethanolamine] | 75-80% | 70
phosphatidylcholine [Phosphatidyl choline] | 80% | 80
